Test results reported in patent US20260224589A1 (priority 2023, published 2026).
Like-named read-outs stand apart in the source and are kept apart here.

Tested on: AsPC-1 cells
Assay: phospho-ERK HTRF assay in AsPC-1 cells, 4 h treatment
Type: cell-based
Settings: Homo sapiens, ASPC1
[1] = AsPC-1, 4H, Table 1a class column, read-out: pERK IC50 activity range (*)
[2] = AsPC-1, 4H, Table 1a, read-out: PERK IC50 (AsPC-1, 4H)
[3] = AsPC-1, 4h, Table 1b, read-out: PERK IC50 (AsPC-1, 4h)

| Structure (SMILES) | IC50 [1] | IC50 [2] | IC50 [3] |
| --- | --- | --- | --- |
| CN(C)C(=O)c1nn2c(c1Cl)CN(c1nc(OC[C@@]34CCCN3C/C(=C\F)C4)nc3c1COC(c1c(C(F)(F)F)ccc(N)c1F)C3)CCC2 (stereo partly drawn) [compound 233, 5-(7-(3-amino-2-fluoro-6-(trifluoromethyl)phenyl)-2-(((S,Z)-2-(fluoromethylene)tetrahydro-1H-pyrrolizin-7a(5H)-yl)methoxy)-7,8-dihydro-5H-pyrano[4,3-d]pyrimidin-4-yl)-3-chloro-N,N-dimethyl-5,6,7,8-tetrahydro-4H-pyrazolo[1,5-a][1,4]diazepine-2-carboxamide] | 10 to 30 nM | 30 nM | – |
| CN(C)C(=O)c1nn2c(c1Cl)CN(c1nc(OC[C@@]34CCCN3C[C@H](F)C4)nc3c1CO[C@H](c1cc(N)cc(Cl)c1C(F)(F)F)C3)CCC2 [compound 234, 5-((S)-7-(5-amino-3-chloro-2-(trifluoromethyl)phenyl)-2-(((2R,7aS)-2-fluorotetrahydro-1H-pyrrolizin-7a(5H)-yl)methoxy)-7,8-dihydro-5H-pyrano[4,3-d]pyrimidin-4-yl)-3-chloro-N,N-dimethyl-5,6,7,8-tetrahydro-4H-pyrazolo[1,5-a][1,4]diazepine-2-carboxamide] | – | – | < 10 nM |
| CN(C)C(=O)c1nn2c(c1Cl)CN(c1nc(OC[C@@]34CCCN3C/C(=C\F)C4)nc3c1CO[C@H](c1cc(N)cc(Cl)c1C(F)(F)F)C3)CCC2 [compound 235, 5-((S)-7-(5-amino-3-chloro-2-(trifluoromethyl)phenyl)-2-(((S,Z)-2-(fluoromethylene)tetrahydro-1H-pyrrolizin-7a(5H)-yl)methoxy)-7,8-dihydro-5H-pyrano[4,3-d]pyrimidin-4-yl)-3-chloro-N,N-dimethyl-5,6,7,8-tetrahydro-4H-pyrazolo[1,5-a][1,4]diazepine-2-carboxamide] | – | – | < 10 nM |
| CN(C)C(=O)c1nn2c(c1Cl)CN(c1nc(OC[C@@]34CCCN3C[C@H](F)C4)nc3c1COC(c1cc(N)cc(Cl)c1C(F)(F)F)C3)CCC2 (stereo partly shown) [compound 236] | – | – | < 10 nM |
| CN(C)C(=O)c1nn2c(c1Cl)CN(c1nc(OC[C@@]34CCCN3C[C@H](F)C4)nc3c1COC(c1cc(N)cc(F)c1C(F)(F)F)C3)CCC2 (stereo partly shown) [compound 237] | 10 to 30 nM | 20.4 nM | – |
| CN(C)C(=O)c1nn2c(c1Cl)CN(c1nc(OC[C@@]34CCCN3CC(=C(F)F)C4)nc3c1COC(c1cc(N)cc(F)c1C(F)(F)F)C3)CCC2 (stereo partly shown) [compound 238] | 10 to 30 nM | 29.3 nM | – |
| Cc1cc(N)cc(C2Cc3nc(OC[C@@]45CCCN4C[C@H](F)C5)nc(N4CCCn5nc(C(=O)N(C)C)c(Cl)c5C4)c3CO2)c1C(F)(F)F (stereo partly shown) [compound 239] | 10 to 30 nM | 12.8 nM | – |
| Cc1cc(N)cc(C2Cc3nc(OC[C@@]45CCCN4C/C(=C\F)C5)nc(N4CCCn5nc(C(=O)N(C)C)c(Cl)c5C4)c3CO2)c1C(F)(F)F (stereo partly shown) [compound 240] | – | – | < 10 nM |
| Cc1cc(N)cc(C2Cc3nc(OC[C@@]45CCCN4CC(=C(F)F)C5)nc(N4CCCn5nc(C(=O)N(C)C)c(Cl)c5C4)c3CO2)c1C(F)(F)F (stereo partly shown) [compound 241] | 31 to 100 nM | 58.9 nM | – |
| CN(C)C(=O)c1nn2c(c1Cl)CN(c1nc(OC[C@@]34CCCN3C/C(=C\F)C4)nc3c1COC(c1cc(N)cc(Cl)c1C(F)(F)F)C3)CCC2 (stereo partly shown) [compound 242] | – | – | < 10 nM |
| CN(C)C(=O)c1nn2c(c1Cl)CN(c1nc(OC[C@@]34CCCN3C/C(=C\F)C4)nc3c1CO[C@H](c1cc(N)ccc1C(F)(F)F)C3)CCC2 [compound 243] | 10 to 30 nM | 10.7 nM | – |
| CN(C)C(=O)c1nn2c(c1Cl)CN(c1nc(OC[C@@]34CCCN3CC(=C(F)F)C4)nc3c1CO[C@H](c1cc(N)ccc1C(F)(F)F)C3)CCC2 [compound 244] | 10 to 30 nM | 22.2 nM | – |
| CN(C)C(=O)c1nn2c(c1Cl)CN(c1nc(OC[C@@]34CCCN3CC(=C(F)F)C4)nc3c1COC(c1cc(N)cc(Cl)c1C(F)(F)F)C3)CCC2 (stereo partly shown) [compound 245] | – | – | < 10 nM |
| CN(C)C(=O)c1nn2c(c1Cl)CN(c1nc(OC[C@@]34CCCN3C/C(=C\F)C4)nc3c1COC(c1cc(N)cc(F)c1C(F)(F)F)C3)CCC2 (stereo partly shown) [compound 246] | 10 to 30 nM | 15.9 nM | – |
